Reference: patent US8618094B2, “Fused substituted aminopyrrolidine derivative” (Daiichi Sankyo Company, Limited, priority 2007, dated 2013)
Converted amounts (≈) assume the structure as drawn.

What was measured:
Experiment in all cases: Antibacterial activity (MIC), standard method of the Japanese Society of Chemotherapy
Format in all cases: cell-based
P. mirabilis 08103 = settings: Proteus mirabilis
Protocol: (§1) Antibacterial activity of the compounds of the present invention was measured in accordance with the standard method specified by the Japanese Society of Chemotherapy.

P. aeruginosa PAO1 = settings: Pseudomonas aeruginosa
Protocol: as §1

K. pneumoniae TYPE 1 = settings: Klebsiella pneumoniae, TYPE1
Protocol: as §1

H. influenzae ATCC49247 = settings: Haemophilus influenzae, ATCC 25238 / ATCC 49247; H. influenzae ATCC25238 as printed (second half of Table 2); read-out: MIC, H. influenzae ATCC25238
Protocol: as §1

E. coli NIHJ = settings: Escherichia coli
Protocol: as §1

E. cloacae 03400 = settings: Enterobacter cloacae
Protocol: as §1

S. pneumoniae J24 = settings: Streptococcus pneumoniae
Protocol: as §1

S. aureus 870307 = settings: Staphylococcus aureus
Protocol: as §1

S. aureus FDA 209-P = settings: Staphylococcus aureus, FDA209
Protocol: as §1

E. faecalis 19433 = settings: Enterococcus faecalis
Protocol: as §1

[1] = system: M(B). Caterrhalis ATCC25238; settings: M(B). Caterrhalis [sic] ATCC49247 (Table 2); read-out: MIC, M(B). Caterrhalis ATCC49247
Protocol: as §1

S. pneumoniae 104835 = settings: Streptococcus pneumoniae
Protocol: as §1

S. epidermidis 56500 = settings: Staphylococcus epidermidis
Protocol: as §1

[2] = system: S. pyogenes JCM5674(ATCC12344); settings: Streptococcus pyogenes
Protocol: as §1

S. marcescens 10100 = settings: Serratia marcescens
Protocol: as §1

| MIC (P. mirabilis 08103) | MIC (P. aeruginosa PAO1) | MIC (K. pneumoniae TYPE 1) | MIC (H. influenzae ATCC49247) | MIC (E. coli NIHJ) | MIC (E. cloacae 03400) | MIC (S. pneumoniae J24) | MIC (S. aureus 870307) | MIC (S. aureus FDA 209-P) | MIC (E. faecalis 19433) | MIC [1] | MIC (S. pneumoniae 104835) | MIC (S. epidermidis 56500) | MIC [2] | MIC (S. marcescens 10100) | Structure (SMILES) |
| --- | --- | --- | --- | --- | --- | --- | --- | --- | --- | --- | --- | --- | --- | --- | --- |
| 0.012 µg/mL (≈ 0.0277 µM) | 0.39 µg/mL (≈ 0.9 µM) | 0.05 µg/mL (≈ 0.115 µM) | 0.012 µg/mL (≈ 0.0277 µM) | 0.006 µg/mL (≈ 0.0138 µM) | 0.012 µg/mL (≈ 0.0277 µM) | 0.025 µg/mL (≈ 0.0577 µM) | 0.1 µg/mL (≈ 0.231 µM) | 0.012 µg/mL (≈ 0.0277 µM) | 0.1 µg/mL (≈ 0.231 µM) | 0.025 µg/mL (≈ 0.0577 µM) | 0.2 µg/mL (≈ 0.461 µM) | 0.05 µg/mL (≈ 0.115 µM) | 0.025 µg/mL (≈ 0.0577 µM) | 0.1 µg/mL (≈ 0.231 µM) | COc1c(N2C[C@@H]3CCCC[C@@]3(N)C2)c(F)cc2c(=O)c(C(=O)O)cn([C@@H]3C[C@@H]3F)c12 [Example 31, 7-[(1S,6S)-1-Amino-8-azabicyclo[4.3.0]nonan-8-yl]-6-fluoro-1-[(1R,2S)-2-fluorocyclopropyl]-8-methoxy-1,4-dihydro-4-oxoquinoline-3-carboxylic acid] |
| 0.012 µg/mL (≈ 0.0299 µM) | 0.2 µg/mL (≈ 0.498 µM) | 0.025 µg/mL (≈ 0.0623 µM) | 0.006 µg/mL (≈ 0.0149 µM) | 0.006 µg/mL (≈ 0.0149 µM) | 0.006 µg/mL (≈ 0.0149 µM) | 0.1 µg/mL (≈ 0.249 µM) | 0.39 µg/mL (≈ 0.972 µM) | 0.025 µg/mL (≈ 0.0623 µM) | 0.1 µg/mL (≈ 0.249 µM) | 0.012 µg/mL (≈ 0.0299 µM) | 0.39 µg/mL (≈ 0.972 µM) | 0.05 µg/mL (≈ 0.125 µM) | 0.05 µg/mL (≈ 0.125 µM) | 0.05 µg/mL (≈ 0.125 µM) | C[C@H]1COc2c(N3C[C@@H]4CCCC[C@@]4(N)C3)c(F)cc3c(=O)c(C(=O)O)cn1c23 [Example 34, 10-[(1S,6S)-1-Amino-8-azabicyclo[4.3.0]nonan-8-yl]-9-fluoro-2,3-dihydro-3-(S)-methyl-7-oxo-7H-pyrido[1,2,3-de][1,4]benzoxazine-6-carboxylic acid] |
| 0.025 µg/mL (≈ 0.0579 µM) | 0.39 µg/mL (≈ 0.904 µM) | 0.05 µg/mL (≈ 0.116 µM) | 0.012 µg/mL (≈ 0.0278 µM) | 0.006 µg/mL (≈ 0.0139 µM) | 0.012 µg/mL (≈ 0.0278 µM) | 0.05 µg/mL (≈ 0.116 µM) | 0.2 µg/mL (≈ 0.464 µM) | 0.025 µg/mL (≈ 0.0579 µM) | 0.2 µg/mL (≈ 0.464 µM) | 0.025 µg/mL (≈ 0.0579 µM) | 0.39 µg/mL (≈ 0.904 µM) | 0.05 µg/mL (≈ 0.116 µM) | 0.05 µg/mL (≈ 0.116 µM) | 0.1 µg/mL (≈ 0.232 µM) | COc1c(N2C[C@@H]3CC=CC[C@@]3(N)C2)c(F)cc2c(=O)c(C(=O)O)cn([C@@H]3C[C@@H]3F)c12 [Example 35, 7-[(1S,6S)-1-Amino-8-azabicyclo[4.3.0]non-3-en-8-yl]-6-fluoro-1-[(1R,2S)-2-fluorocyclopropyl]-1,4-dihydro-8-methoxy-4-oxoquinoline-3-carboxylic acid] |
| 0.05 µg/mL (≈ 0.115 µM) | 1.56 µg/mL (≈ 3.58 µM) | 0.1 µg/mL (≈ 0.23 µM) | ≤ 0.003 µg/mL | 0.006 µg/mL (≈ 0.0138 µM) | 0.025 µg/mL (≈ 0.0574 µM) | 0.05 µg/mL (≈ 0.115 µM) | 0.05 µg/mL (≈ 0.115 µM) | 0.006 µg/mL (≈ 0.0138 µM) | 0.1 µg/mL (≈ 0.23 µM) | 0.025 µg/mL (≈ 0.0574 µM) | 0.39 µg/mL (≈ 0.896 µM) | 0.012 µg/mL (≈ 0.0276 µM) | 0.05 µg/mL (≈ 0.115 µM) | 0.2 µg/mL (≈ 0.459 µM) | COc1c(N2C[C@@H]3COCC[C@@]3(N)C2)c(F)cc2c(=O)c(C(=O)O)cn([C@@H]3C[C@@H]3F)c12 [Example 37, 7-[(1S,6S)-1-Amino-4-oxa-8-azabicyclo[4.3.0]nonan-8-yl]-6-fluoro-1-[(1R,2S)-2-fluorocyclopropyl]-1,4-dihydro-8-methoxy-4-oxoquinoline-3-carboxylic acid] |
| 0.025 µg/mL (≈ 0.0574 µM) | 0.78 µg/mL (≈ 1.79 µM) | 0.05 µg/mL (≈ 0.115 µM) | 0.006 µg/mL (≈ 0.0138 µM) | 0.006 µg/mL (≈ 0.0138 µM) | 0.012 µg/mL (≈ 0.0276 µM) | 0.1 µg/mL (≈ 0.23 µM) | 0.2 µg/mL (≈ 0.459 µM) | 0.012 µg/mL (≈ 0.0276 µM) | 0.2 µg/mL (≈ 0.459 µM) | 0.025 µg/mL (≈ 0.0574 µM) | 0.78 µg/mL (≈ 1.79 µM) | 0.05 µg/mL (≈ 0.115 µM) | 0.05 µg/mL (≈ 0.115 µM) | 0.2 µg/mL (≈ 0.459 µM) | COc1c(N2C[C@@H]3CCOC[C@@]3(N)C2)c(F)cc2c(=O)c(C(=O)O)cn([C@@H]3C[C@@H]3F)c12 [Example 43, 7-[(1S,6S)-1-Amino-8-aza-3-oxabicyclo[4,3,0]nonan-8-yl]-6-fluoro-1-[(1R,2S)-2-fluorocyclopropyl]-1,4-dihydro-8-methoxy-4-oxoquinoline-3-carboxylic acid] |
| 0.025 µg/mL (≈ 0.0692 µM) | 0.39 µg/mL (≈ 1.08 µM) | 0.05 µg/mL (≈ 0.138 µM) | 0.012 µg/mL (≈ 0.0332 µM) | 0.012 µg/mL (≈ 0.0332 µM) | 0.012 µg/mL (≈ 0.0332 µM) | 0.78 µg/mL (≈ 2.16 µM) | 6.25 µg/mL (≈ 17.3 µM) | 0.1 µg/mL (≈ 0.277 µM) | 0.78 µg/mL (≈ 2.16 µM) | 0.025 µg/mL (≈ 0.0692 µM) | > 6.25 µg/mL | 0.39 µg/mL (≈ 1.08 µM) | 0.39 µg/mL (≈ 1.08 µM) | 0.05 µg/mL (≈ 0.138 µM) | C[C@H]1COc2c(N3CCN(C)CC3)c(F)cc3c(=O)c(C(=O)O)cn1c23 [LVFX, levofloxacin, reference compound] |
| 0.025 µg/mL (≈ 0.0623 µM) | 0.78 µg/mL (≈ 1.94 µM) | 0.1 µg/mL (≈ 0.249 µM) | – | – | – | 0.1 µg/mL (≈ 0.249 µM) | 0.78 µg/mL (≈ 1.94 µM) | 0.05 µg/mL (≈ 0.125 µM) | 0.2 µg/mL (≈ 0.498 µM) | – | 3.13 µg/mL (≈ 7.8 µM) | 0.1 µg/mL (≈ 0.249 µM) | 0.2 µg/mL (≈ 0.498 µM) | 0.2 µg/mL (≈ 0.498 µM) | COc1c(N2C[C@@H]3CCCN[C@@H]3C2)c(F)cc2c(=O)c(C(=O)O)cn(C3CC3)c12 [MXFX, moxifloxacin, reference compound] |
